Test results taken from ChEMBL document CHEMBL4765417, “Targeting Protein Folding: A Novel Approach for the Treatment of Pathogenic Bacteria” (J Med Chem, 2020).

Key:
[1] = target: Outer membrane protein MIP (Legionella pneumophila, UniProt Q70YI1); assay: Inhibition of Legionella pneumophila Mip assessed as reduction in PPIase activity using succinyl-Ala-Leu-Pro-Phe-4-nitroanilide as substrate incubated for 4 mins by absorbance method
[2] = test system: Chlamydia trachomatis; assay: Antibacterial activity against Chlamydia trachomatis infected in human HeLa cells at 5 uM assessed as reduction in progeny infection administered at 8 to 24 hrs post infection by Western blot analysis; format: functional; set-up: scale not given: the % may be the effect or the level left; settings: time 8-24 hrs
[3] = test system: Chlamydia trachomatis; assay: Antibacterial activity against Chlamydia trachomatis infected in human HeLa cells at 5 uM administered at 8 to 24 hrs post infection by phalloidin dye based Alexa Fluor immunofluorescence microscopy; format: functional; settings: time 8-24 hrs
[4] = test system: Chlamydia trachomatis; assay: Antibacterial activity against Chlamydia trachomatis infected in human HeLa cells at 5 uM assessed as reduction in progeny infection administered immediately followed by bacterial infection by Western blot analysis; format: functional; set-up: scale not given: the % may be the effect or the level left
[5] = Inhibition of Chlamydia trachomatis Mip using N-succinyl-Ala-Ala-Pro-Phe-4-nitroanilide as substrate by absorbance method
[6] = test system: Chlamydia trachomatis; assay: Antibacterial activity against Chlamydia trachomatis infected in human HeLa cells at 5 uM assessed as reduction in progeny infection administered immediately followed by bacterial infection by phalloidin dye based Alexa Fluor immunofluorescence microscopy; format: functional; set-up: scale not given: the % may be the effect or the level left
[7] = Inhibition of Neisseria gonorrhoeae N2009 Mip using N-succinyl-Ala-Ala-Pro-Phe-4-nitroanilide as substrate by absorbance method
[8] = test system: HCT-116; assay: Antiproliferative activity against human HCT116 cells incubated for 24 hrs by cell count reagent SF based assay; format: functional; settings: HCT-116, 24 h
[9] = target: Peptidyl-prolyl cis-trans isomerase FKBP1A (Homo sapiens, UniProt P62942); assay: Inhibition of human FKBP12 assessed as reduction in PPIase activity using succinyl-Ala-Leu-Pro-Phe-4-nitroanilide as substrate incubated for 4 mins by absorbance method
[10] = clinical; settings: human, in vivo, po, 30 mg/m2

Sequence of Peptidyl-prolyl cis-trans isomerase FKBP1A (P62942 whole entry): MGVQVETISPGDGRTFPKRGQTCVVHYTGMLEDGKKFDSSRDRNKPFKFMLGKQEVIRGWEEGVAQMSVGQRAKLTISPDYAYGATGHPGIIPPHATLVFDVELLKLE
Sequence of Outer membrane protein MIP (Q70YI1 21-233 limits assumed): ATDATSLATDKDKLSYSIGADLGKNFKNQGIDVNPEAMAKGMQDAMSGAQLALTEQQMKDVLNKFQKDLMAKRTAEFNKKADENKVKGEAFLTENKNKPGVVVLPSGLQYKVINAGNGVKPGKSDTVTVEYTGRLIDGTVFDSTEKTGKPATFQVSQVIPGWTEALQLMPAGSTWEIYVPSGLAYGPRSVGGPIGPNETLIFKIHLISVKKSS

Row | SMILES | IC50 [1] [nM] | IC50 [5] [nM] | IC50 [7] [nM] | IC50 [9] [nM] | further results
1 | C[C@@H]1CC([C@H](O)CC2CC(=O)N(CC(=O)N(C)C(C)(C)C)C(=O)C2)C(=O)[C@@H](C)C1 (stereo partly specified) | 31700 | – | – | – | –
2 | COc1cc(CCCOC(=O)C2CCCCN2S(=O)(=O)Cc2ccc([N+](=O)[O-])cc2)cc(OC)c1OC (stereo unspecified) | – | 64.6 | 95.6 | – | Activity [2]: 50%; Activity [3]: 50%; Activity [4]: 50%; Activity [6]: 50%
3 | S=C(SC(=S)C1CCCCC1)C1CCCCC1 | – | – | – | – | EC50 [8]: 10000 nM
4 | COc1cc(CCCOC(=O)C2CCCCN2S(=O)(=O)Cc2cccc([N+](=O)[O-])c2)cc(OC)c1OC (stereo unspecified) | – | 241 | 2790 | – | –
5 | CCC12CC3CC(C1)C(NC(=O)CN1C(=O)CC(C[C@@H](O)C4C[C@@H](C)C[C@H](C)C4=O)CC1=O)C(C3)C2 (stereo partly specified) | 5600 | – | – | 190 | –
6 | C[C@@H]1CC([C@H](O)CC2CC(=O)N(CC(=O)NC3C4CC5(C)CC3CC(C)(C4)C5)C(=O)C2)C(=O)[C@@H](C)C1 (stereo partly specified) | 1700 | – | – | 180 | –
7 | C[C@@H]1CC([C@H](O)CC2CC(=O)N(CC(=O)NC3C4CC5(C)CC(O)(C4)CC3(C)C5)C(=O)C2)C(=O)[C@@H](C)C1 (stereo partly specified) | 4900 | – | – | 220 | –
8 | C[C@@H]1CC([C@H](O)CC2CC(=O)N(CC(=O)NC3C4CC5CC3CC(O)(C5)C4)C(=O)C2)C(=O)[C@@H](C)C1 (stereo partly specified) | 21800 | – | – | 1200 | –
9 | CO[C@H]1C[C@@H]2CC[C@@H](C)[C@@](O)(O2)C(=O)C(=O)N2CCCC[C@H]2C(=O)O[C@H]([C@H](C)C[C@@H]2CC[C@@H](O)[C@H](OC)C2)CC(=O)[C@H](C)/C=C(\C)[C@@H](O)[C@@H](OC)C(=O)[C@H](C)C[C@H](C)/C=C/C=C/C=C/1C [SIROLIMUS] | – | 7.9 | 15.8 | – | –
10 | CC1=C(/C=C/C(C)=C/C=C/C(C)=C/C(=O)O)C(C)(C)CCC1 [TRETINOIN] | – | – | – | – | half-life at 672 h [10]: 45 min
